In assay [1] the target is T1, bradykinin 1 receptor (B1R) of the rat (Rattus norvegicus, UniProt P97583).
T1 construct: expressed in transfected cells; host or cells: CHO K1 cells
T1 sequence (P97583 1-337): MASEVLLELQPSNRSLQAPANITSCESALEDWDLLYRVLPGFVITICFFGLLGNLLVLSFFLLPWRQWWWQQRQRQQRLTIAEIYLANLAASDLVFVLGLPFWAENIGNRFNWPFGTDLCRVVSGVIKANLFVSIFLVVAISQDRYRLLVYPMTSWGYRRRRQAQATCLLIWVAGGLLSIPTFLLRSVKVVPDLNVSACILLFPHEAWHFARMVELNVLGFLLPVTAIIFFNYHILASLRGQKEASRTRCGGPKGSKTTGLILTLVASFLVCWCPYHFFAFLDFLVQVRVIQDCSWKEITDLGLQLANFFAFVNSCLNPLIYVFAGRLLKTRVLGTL
The assay can be described thus: Functional investigation on the rat bradykinin 1 receptor (B1R), Ca2+ FLIPR assay in CHO K1 rB1R cells. The format is cell-based. Particulars: B1R antagonism rat; test substance 10 μM; Ca2+ FLIPR, CHO K1 rB1R cells. The gist of the method: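 Peak Ca2+-dependent fluorescence in B1R-transfected CHO K1 cells measures antagonism of an EC80 agonist challenge given 10-20 min after compound. Agonist is Lys-Des-Arg9-bradykinin for human, Des-Arg9-bradykinin for rat receptor.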

In a further assay the target is T2, human μ opiate receptor (Homo sapiens, UniProt P35372).
T2 construct: purchased PerkinElmer Life Sciences, Zaventem, Belgium RB-HOM; host or cells: CHO-K1 cells (membrane preparation)
Description: Affinity for the human μ opiate receptor ([3H]-naloxone displacement, CHO-K1 receptor membrane preparation, SPA). The format is binding. Conditions: test concentration of 1 μM. A digest of the protocol: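 At 1 μmol/l, compounds were scored for % displacement of 1 nmol/l [3H]-naloxone from CHO-K1-expressed human μ opiate receptor in a homogeneous SPA format (90 min, room temperature).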

Experimental findings from patent US8106055B2, “Substituted amide compounds” (Gruenenthal GmbH, priority 2007, dated 2012) are described below.

T2 sequence (P35372 whole entry): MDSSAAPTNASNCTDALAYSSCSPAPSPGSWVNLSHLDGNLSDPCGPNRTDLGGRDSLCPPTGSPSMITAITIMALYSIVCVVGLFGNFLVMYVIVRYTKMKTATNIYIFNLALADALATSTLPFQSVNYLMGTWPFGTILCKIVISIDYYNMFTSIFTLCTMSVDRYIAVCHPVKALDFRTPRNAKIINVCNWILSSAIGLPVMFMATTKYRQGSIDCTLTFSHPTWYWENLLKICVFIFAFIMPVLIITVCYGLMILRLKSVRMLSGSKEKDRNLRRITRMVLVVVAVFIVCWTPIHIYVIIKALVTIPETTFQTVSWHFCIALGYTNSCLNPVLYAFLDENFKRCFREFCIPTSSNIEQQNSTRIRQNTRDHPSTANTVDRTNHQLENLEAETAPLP

Regarding `CN(C)C(c1ccc(F)cc1)C1CCC(CNC(=O)COC2CCN(S(=O)(=O)c3ccc(Cl)cc3)C2)CC1` (stereo not shown) [Example 517], the “B1R Ant. r [10 μM] % Inhibition” value in assay [1] is 38%. In addition, the “μ (binding on the μ opioid receptor, % inhibition)” value on human μ opiate receptor is recorded as 40%.

Take `COc1ccc(S(=O)(=O)N(C)CCOCC(=O)NCCC2CCC(C(c3ccc(F)cc3)N(C)C)CC2)cc1` (stereo not shown) [Example 519]: the “B1R Ant. r [10 μM] % Inhibition” value in assay [1] is recorded as 44%. Besides, the “μ (binding on the μ opioid receptor, % inhibition)” value at human μ opiate receptor is reported as 39%.

Turning to `COc1cc(C)c(S(=O)(=O)N2CCC(CCOCC(=O)NCC3CCC(C(c4ccc(F)cc4)N(C)C)CC3)CC2)c(C)c1C` (stereo not shown) [Example 481], the “B1R Ant. r [10 μM] % Inhibition” value in assay [1] stood at 49%. Besides, the “μ (binding on the μ opioid receptor, % inhibition)” value on human μ opiate receptor came out at 38%.

As for `Cc1cc(C)c(S(=O)(=O)N2CCC(OCC(=O)NCCC3CCC(C(c4ccc(F)cc4)N(C)C)CC3)C2)c(C)c1` (stereo not shown) [Example 501], the “B1R Ant. r [10 μM] % Inhibition” value in assay [1] is on record as 38%. In addition, on human μ opiate receptor, the “μ (binding on the μ opioid receptor, % inhibition)” value is 45%.

Regarding `CN(C)C(c1ccc(F)cc1)C1CCC(CCNC(=O)COC2CCCN(S(=O)(=O)c3ccccc3)C2)CC1` (stereo not shown) [Example 520], the “B1R Ant. r [10 μM] % Inhibition” value in assay [1] was 24%. Besides, the “μ (binding on the μ opioid receptor, % inhibition)” value at human μ opiate receptor is 31%.

As to `CN(C)C(c1ccc(F)cc1)C1CCC(CNC(=O)COC2CCN(S(=O)(=O)c3ccc(F)cc3)C2)CC1` (stereo not shown) [Example 522], the “B1R Ant. r [10 μM] % Inhibition” value in assay [1] was found to be 12%. Besides, on human μ opiate receptor, the “μ (binding on the μ opioid receptor, % inhibition)” value was determined as 35%.

For `CN(C)C(c1ccc(F)cc1)C1CCC(CCNC(=O)COCCN2CCN(S(=O)(=O)c3ccccc3)CC2)CC1` (stereo not shown) [Example 493], in assay [1], the “B1R Ant. r [10 μM] % Inhibition” value was determined as 4%. In addition, on human μ opiate receptor, the “μ (binding on the μ opioid receptor, % inhibition)” value turned out to be 34%.

Turning to `CN(C)C(CCc1ccccc1)C1CCC(CNC(=O)COC2CCN(S(=O)(=O)c3ccc(Cl)cc3Cl)C2)CC1` (stereo not shown) [Example 496], in assay [1], the “B1R Ant. r [10 μM] % Inhibition” value is 35%. Moreover, the “μ (binding on the μ opioid receptor, % inhibition)” value on human μ opiate receptor came to 41%.

In the case of `CN(C)C(c1ccc(F)cc1)C1CCC(CCNC(=O)COCCC2CCN(S(=O)(=O)c3ccccc3)CC2)CC1` (stereo not shown) [Example 470], the “B1R Ant. r [10 μM] % Inhibition” value in assay [1] came to 23%. The “μ (binding on the μ opioid receptor, % inhibition)” value on human μ opiate receptor worked out at 35%.

For the compound `COc1cc(C)c(S(=O)(=O)N(CCOCC(=O)NCC2CCC(C(CCc3ccccc3)N(C)C)CC2)Cc2ccccc2)c(C)c1` (stereo not shown) [Example 542], in assay [1], the “B1R Ant. r [10 μM] % Inhibition” value turned out to be 45%. For the same compound, at human μ opiate receptor, the “μ (binding on the μ opioid receptor, % inhibition)” value is given as 33%.

With `COc1ccc(S(=O)(=O)N2CCCCC2COCC(=O)NC2CCC(C(c3ccc(F)cc3)N(C)C)CC2)c(OC)c1` (stereo not shown) [Example 524], in assay [1], the “B1R Ant. r [10 μM] % Inhibition” value is reported as 26%. For the same compound, at human μ opiate receptor, the “μ (binding on the μ opioid receptor, % inhibition)” value was found to be 33%.
